Results taken from ChEMBL document CHEMBL1138933 (J Med Chem, 2006).
Active and inactive are the calls of the source. The calls are words filed in the database; no cut-off is given here.

Legend:
Rattus norvegicus = experiment: Increase of 5-HT levels in Sprague-Dawley rat frontal cortex at 30 mg/kg, po relative to control by microdialysis assay; assay type: functional, organism-based; parameters: dose 30 mg/kg
[1] = target: Sodium-dependent serotonin transporter (Rattus norvegicus, UniProt P31652)
Sequence of Sodium-dependent serotonin transporter (Rattus norvegicus, UniProt P31652) (P31652 whole entry): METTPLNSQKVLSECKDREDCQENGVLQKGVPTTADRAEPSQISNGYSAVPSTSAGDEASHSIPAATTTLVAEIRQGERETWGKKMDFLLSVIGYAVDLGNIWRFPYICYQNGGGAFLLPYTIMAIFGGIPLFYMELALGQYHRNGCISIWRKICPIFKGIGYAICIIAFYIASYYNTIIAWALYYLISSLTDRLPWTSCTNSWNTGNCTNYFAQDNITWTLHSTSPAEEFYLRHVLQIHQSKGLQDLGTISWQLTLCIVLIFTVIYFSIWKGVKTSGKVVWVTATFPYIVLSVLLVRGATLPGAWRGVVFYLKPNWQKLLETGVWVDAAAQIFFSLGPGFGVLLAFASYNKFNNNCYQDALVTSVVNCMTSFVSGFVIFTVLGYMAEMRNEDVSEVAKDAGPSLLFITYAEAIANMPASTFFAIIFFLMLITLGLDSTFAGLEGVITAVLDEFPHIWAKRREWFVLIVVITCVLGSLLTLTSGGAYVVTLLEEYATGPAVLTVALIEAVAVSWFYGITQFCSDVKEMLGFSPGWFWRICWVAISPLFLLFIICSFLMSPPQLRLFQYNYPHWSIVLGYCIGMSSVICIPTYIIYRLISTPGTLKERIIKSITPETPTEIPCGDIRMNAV
Description: Displacement of [3H]paroxetine from 5-HT transporter in Sprague-Dawley rat cortical membranes

[2] = target: Adrenergic receptor alpha-1 (Rattus norvegicus) (UniProt P15823+P23944+P43140); experiment: Displacement of [3H]prazosin from alpha-1 adrenergic receptor in Sprague-Dawley rat cortical membranes at 1 uM; assay type: cell membranes; conditions: Membrane
[3] = target: Sodium-dependent serotonin transporter (Homo sapiens, UniProt P31645); assay type: cell-based, JAR
Sequence of Sodium-dependent serotonin transporter (Homo sapiens, UniProt P31645) (P31645 whole entry): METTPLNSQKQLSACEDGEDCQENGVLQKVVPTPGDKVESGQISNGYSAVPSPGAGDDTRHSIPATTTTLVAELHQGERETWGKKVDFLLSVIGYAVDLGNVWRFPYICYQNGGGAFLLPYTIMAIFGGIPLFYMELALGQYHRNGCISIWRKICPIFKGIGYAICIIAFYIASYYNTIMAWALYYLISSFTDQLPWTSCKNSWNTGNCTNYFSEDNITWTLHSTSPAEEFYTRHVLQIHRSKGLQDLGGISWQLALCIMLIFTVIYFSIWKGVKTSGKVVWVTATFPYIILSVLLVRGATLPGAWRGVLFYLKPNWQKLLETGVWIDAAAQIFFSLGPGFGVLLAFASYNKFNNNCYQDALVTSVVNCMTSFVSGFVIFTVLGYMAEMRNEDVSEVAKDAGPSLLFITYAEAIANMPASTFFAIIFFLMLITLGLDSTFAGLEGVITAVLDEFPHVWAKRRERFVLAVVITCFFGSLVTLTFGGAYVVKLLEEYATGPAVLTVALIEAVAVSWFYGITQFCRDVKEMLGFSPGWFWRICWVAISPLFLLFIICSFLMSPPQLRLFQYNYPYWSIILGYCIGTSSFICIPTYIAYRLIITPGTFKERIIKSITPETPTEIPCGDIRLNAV
Description: Inhibition of [3H]5-HT uptake at human 5-HT transporter expressed in Jar cells

[4] = target: T1, Adrenergic receptor alpha-1 (Rattus norvegicus, UniProt P15823+P23944+P43140); experiment: Displacement of [3H]prazosin from alpha-1 adrenergic receptor in Sprague-Dawley rat cortical membranes; assay type: cell membranes, Membrane
T1 sequence (P15823 whole entry): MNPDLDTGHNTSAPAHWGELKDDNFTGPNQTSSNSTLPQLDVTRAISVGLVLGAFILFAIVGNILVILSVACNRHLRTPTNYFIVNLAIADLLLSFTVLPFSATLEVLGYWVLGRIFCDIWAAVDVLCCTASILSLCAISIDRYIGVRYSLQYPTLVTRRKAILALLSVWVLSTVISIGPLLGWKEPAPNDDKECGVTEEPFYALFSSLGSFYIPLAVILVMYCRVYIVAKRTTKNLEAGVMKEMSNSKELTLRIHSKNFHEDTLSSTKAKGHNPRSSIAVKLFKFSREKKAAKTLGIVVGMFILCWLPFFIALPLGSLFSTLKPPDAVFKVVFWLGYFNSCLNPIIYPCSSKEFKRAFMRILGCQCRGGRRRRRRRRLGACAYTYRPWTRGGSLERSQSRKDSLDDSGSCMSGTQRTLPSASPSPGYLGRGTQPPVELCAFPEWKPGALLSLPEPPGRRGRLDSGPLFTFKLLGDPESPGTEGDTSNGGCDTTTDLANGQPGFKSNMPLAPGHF
T1 sequence (P23944 whole entry): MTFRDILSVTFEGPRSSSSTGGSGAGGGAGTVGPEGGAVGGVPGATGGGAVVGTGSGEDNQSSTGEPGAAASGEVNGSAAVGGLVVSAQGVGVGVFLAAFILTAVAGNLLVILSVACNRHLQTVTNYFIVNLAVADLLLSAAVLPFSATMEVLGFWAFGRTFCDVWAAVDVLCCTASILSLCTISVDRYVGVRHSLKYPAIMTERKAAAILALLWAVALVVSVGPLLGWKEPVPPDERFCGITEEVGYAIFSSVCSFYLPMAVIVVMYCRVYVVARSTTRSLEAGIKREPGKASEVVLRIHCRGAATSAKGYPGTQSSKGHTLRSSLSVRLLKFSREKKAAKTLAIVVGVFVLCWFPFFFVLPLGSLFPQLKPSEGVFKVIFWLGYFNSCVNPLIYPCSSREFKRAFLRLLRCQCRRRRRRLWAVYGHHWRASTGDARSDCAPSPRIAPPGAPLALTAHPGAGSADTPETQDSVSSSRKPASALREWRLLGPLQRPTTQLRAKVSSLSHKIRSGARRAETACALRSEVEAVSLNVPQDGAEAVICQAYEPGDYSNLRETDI
T1 sequence (P43140 whole entry): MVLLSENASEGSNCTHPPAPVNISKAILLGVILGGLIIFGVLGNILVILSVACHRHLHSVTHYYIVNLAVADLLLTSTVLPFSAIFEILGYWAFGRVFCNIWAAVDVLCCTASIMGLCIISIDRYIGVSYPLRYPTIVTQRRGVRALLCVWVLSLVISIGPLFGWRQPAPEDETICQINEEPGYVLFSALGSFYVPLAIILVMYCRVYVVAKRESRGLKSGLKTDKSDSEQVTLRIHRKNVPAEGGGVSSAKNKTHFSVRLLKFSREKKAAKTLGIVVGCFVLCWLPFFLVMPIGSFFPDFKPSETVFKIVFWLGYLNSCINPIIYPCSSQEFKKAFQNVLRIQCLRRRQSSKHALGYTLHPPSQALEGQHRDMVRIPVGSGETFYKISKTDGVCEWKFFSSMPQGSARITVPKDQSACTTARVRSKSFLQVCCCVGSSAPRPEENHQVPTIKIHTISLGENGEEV

[5] = target: T2, 5-hydroxytryptamine receptor 1A (Homo sapiens) (UniProt P08908); experiment: Agonist activity at human 5HT1A receptor expressed in CHO cells by inhibition of […] forskolin-stimulated cAMP production relative to 5-HT; assay type: functional, cell-based
T2 sequence (whole entry): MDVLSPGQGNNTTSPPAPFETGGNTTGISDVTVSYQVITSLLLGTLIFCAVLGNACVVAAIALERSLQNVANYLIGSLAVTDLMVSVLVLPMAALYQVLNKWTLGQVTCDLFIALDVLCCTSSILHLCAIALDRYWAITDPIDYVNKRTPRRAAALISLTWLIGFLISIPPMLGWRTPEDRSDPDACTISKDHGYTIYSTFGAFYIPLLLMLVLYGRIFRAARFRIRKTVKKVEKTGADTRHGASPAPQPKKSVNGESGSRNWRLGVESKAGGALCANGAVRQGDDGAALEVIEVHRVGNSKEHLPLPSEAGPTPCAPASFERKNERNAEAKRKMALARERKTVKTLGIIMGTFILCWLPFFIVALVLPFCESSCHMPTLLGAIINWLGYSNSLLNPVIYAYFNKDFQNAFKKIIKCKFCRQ

[6] = target: T3, 5-hydroxytryptamine receptor 1A (Homo sapiens, UniProt P08908); experiment: biochemical
T3 sequence (P08908 whole entry): T2 sequence (whole entry)
Description: Displacement of [3H]-8-OH-DPAT from human 5HT1A receptor expressed in CHO cells

[7] = target: T3, 5-hydroxytryptamine receptor 1A

Ki [1] [nM] | inhibition [2] [%] | IC50 [3] [nM] | Ki [4] [nM] | Emax [5] [%] | Ki [6] [nM] | IC50 [7] [nM] | SMILES | Activity (Rattus norvegicus)
1.5 | 21 | 18.7 |  |  |  |  | NC(=O)c1ccc(F)c2c1C[C@@H](N(CCCc1c[nH]c3ccc(F)cc13)C1CCC1)CO2 | Active
3.6 |  | 37.3 | 545 | 91 | 18.6 |  | CCN(CCCc1c[nH]c2ccc(F)cc12)[C@@H]1COc2c(F)ccc(C(N)=O)c2C1 | 
3.4 |  | 42.7 | 640 |  | 34.9 | 135 | CCN(CCCc1c[nH]c2ccc(F)cc12)[C@H]1COc2c(F)ccc(C(N)=O)c2C1 | 
4.7 | 46 | 59.9 |  | 97 | 3.2 |  | CCCN(CCCc1c[nH]c2ccc(F)cc12)[C@@H]1COc2c(F)ccc(C(N)=O)c2C1 | 
0.4 |  | 24.1 | 328 |  | 330 | > 1000 | CCN(CCCCc1c[nH]c2ccc(F)cc12)C1COc2c(F)ccc(C(N)=O)c2C1 (racemic) | 
 |  | 64 | 207 | 96 | 2.3 |  | CCN(CCCc1c[nH]c2ccc(F)cc12)C1COc2cccc(OC)c2C1 (racemic) | 
12.2 |  | 217 | 494 |  | 4.4 |  | CCCN(CCCCc1c[nH]c2ccc(F)cc12)C1COc2c(F)ccc(C(N)=O)c2C1 (racemic) | 
7.1 |  | 128 |  | 84 | 3.5 |  | CCCN(CCCc1c[nH]c2ccc(F)cc12)C1COc2c(F)ccc(C(N)=O)c2C1 (racemic) | 
10.4 |  | 300 | 645 |  |  | 24 | NC(=O)c1ccc(F)c2c1CC(N(CCCCc1c[nH]c3ccc(F)cc13)C1CCC1)CO2 (racemic) | 
 |  | 386 | 820 | 80 |  |  | CCCN(CCCc1c[nH]c2ccc(F)cc12)C1COc2cccc(OC)c2C1 (racemic) | 
97.8 |  | > 1000 | 636 |  | 7.3 |  | NC(=O)c1ccc(F)c2c1CC(N(CCc1c[nH]c3ccc(F)cc13)CC1CC1)CO2 (racemic) | 
3 | 16 | 25.2 |  |  |  |  | NC(=O)c1ccc(F)c2c1CC(N(CCCc1c[nH]c3ccc(F)cc13)C1CCC1)CO2 (racemic) | 
3.3 |  | 82.4 | 506 |  | 2.1 |  | NC(=O)c1ccc(F)c2c1CC(N(CCCCc1c[nH]c3ccc(F)cc13)CC1CC1)CO2 (racemic) | 
 | 15 | 400 |  | 37 |  |  | COc1cccc2c1CC(N(CCCc1c[nH]c3ccc(F)cc13)C1CCC1)CO2 (racemic) | 

Second part, the compound before the results:

SMILES | Ki [1] [nM] | inhibition [2] [%] | IC50 [3] [nM] | Ki [4] [nM] | Emax [5] [%] | Ki [6] [nM] | IC50 [7] [nM] | Activity (Rattus norvegicus)
NC(=O)c1ccc(F)c2c1C[C@H](N(CCCc1c[nH]c3ccc(F)cc13)C1CCC1)CO2 | 5.3 |  | 17.4 |  |  |  |  | 
NC(=O)c1ccc(F)c2c1C[C@@H](N(CCCc1c[nH]c3ccc(F)cc13)CC1CC1)CO2 | 3.9 |  | 59.7 | 2023 |  |  |  | 
NC(=O)c1ccc(F)c2c1C[C@H](N(CCCc1c[nH]c3ccc(F)cc13)CC1CC1)CO2 | 4.2 | 26 | 36.3 |  | 69 |  |  | 
COc1cccc2c1C[C@@H](N(CCCc1c[nH]c3ccc(F)cc13)C1CCC1)CO2 |  | 15 | 732 |  |  |  | 23 | 
NC(=O)c1ccc(F)c2c1C[C@@H](NCCCc1c[nH]c3ccc(F)cc13)CO2 | 20.4 | 21 | 197 |  | 85 | 45.2 |  | 
CN(CCCc1c[nH]c2ccc(F)cc12)[C@H]1COc2c(F)ccc(C(N)=O)c2C1 | 14.8 | 37 | 116 |  |  | 266 |  | 
CCCN(CCCc1c[nH]c2ccc(F)cc12)[C@H]1COc2c(F)ccc(C(N)=O)c2C1 | 8 |  | 181 | 1150 | 78 | 1.5 |  | 
CCN(CCc1c[nH]c2ccc(F)cc12)C1COc2c(F)ccc(C(N)=O)c2C1 (racemic) | 60.2 |  | 883 | 416 |  | 33.2 |  | 
COc1cccc2c1CC(N(C)CCCc1c[nH]c3ccc(F)cc13)CO2 (racemic) |  |  | 15 | 610 | 91 |  |  | 
COc1cccc2c1CC(N(CCCc1c[nH]c3ccc(F)cc13)CC1CC1)CO2 (racemic) |  | 44 | 42.6 |  | 91 |  |  | 
CCCN(CCc1c[nH]c2ccc(F)cc12)C1COc2c(F)ccc(C(N)=O)c2C1 (racemic) | 88 |  | > 1000 | 484 |  | 17.6 |  | 
NC(=O)c1ccc(F)c2c1CC(N(CCCc1c[nH]c3ccc(F)cc13)CC1CC1)CO2 (racemic) | 3.5 | 32 | 53.5 |  |  |  |  | 
